From publication PMC11874750, “Inhibitory effect of fermented avocado seed extract (Persea americana Mill. cv. Hass) on polyphenol oxidase and its application as anti-browning agent in avocado, apple, and banana pulps” (Heliyon, 2025) come the findings set out here.

The experiment has as its system T1, polyphenol oxidase (PPO), crude PPO extract of Hass avocado pulp.
T1 construct: isoenzyme not identified
As to the kind of experiment: absorbance at […] nm, Lineweaver-Burk. Type of experiment: biochemical, Persea americana. As to conditions: phosphate buffer pH 7.0, catechol 2.7-44.5 mM, also printed as 0.1627 g/L, no inhibitor.

The Km is the substrate concentration at which the rate is half of its maximum.

For `Oc1ccccc1O` [catechol], the Km is 1480 µM.
